T1: HypD (trans-4-hydroxy-L-proline dehydratase; CdHypD) (Clostridioides difficile, UniProt A0A031WDE4)
T1 construct: gene pflD; full length, N-terminal hexahistidine tag (pET28a-CdHypD), E. coli BL21-CodonPlus(DE3)-RIL (delta proC for assays); dimeric; for activity the Gly765 radical was installed by HypD-AE
T1 sequence (A0A031WDE4 1-789): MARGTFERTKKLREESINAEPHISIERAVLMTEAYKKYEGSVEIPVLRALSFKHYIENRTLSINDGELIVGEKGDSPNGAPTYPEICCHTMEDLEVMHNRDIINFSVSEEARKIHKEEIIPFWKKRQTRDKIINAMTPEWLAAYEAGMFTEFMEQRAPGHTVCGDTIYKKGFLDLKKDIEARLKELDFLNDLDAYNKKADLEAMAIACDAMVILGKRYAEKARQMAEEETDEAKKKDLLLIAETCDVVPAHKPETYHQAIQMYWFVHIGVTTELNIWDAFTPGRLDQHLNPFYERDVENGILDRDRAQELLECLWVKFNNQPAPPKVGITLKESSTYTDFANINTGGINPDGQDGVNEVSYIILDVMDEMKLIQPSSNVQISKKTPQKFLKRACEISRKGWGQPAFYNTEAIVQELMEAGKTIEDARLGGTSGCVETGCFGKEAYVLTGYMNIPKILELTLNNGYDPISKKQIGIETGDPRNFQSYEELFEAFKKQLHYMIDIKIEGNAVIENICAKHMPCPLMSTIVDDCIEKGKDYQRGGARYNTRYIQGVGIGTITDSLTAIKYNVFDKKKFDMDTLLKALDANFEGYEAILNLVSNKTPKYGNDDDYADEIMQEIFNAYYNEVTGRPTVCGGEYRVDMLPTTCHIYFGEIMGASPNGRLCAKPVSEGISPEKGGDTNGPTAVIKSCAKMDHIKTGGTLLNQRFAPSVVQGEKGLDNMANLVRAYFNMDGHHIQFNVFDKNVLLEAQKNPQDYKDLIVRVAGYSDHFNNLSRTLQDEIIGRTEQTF


Assays:
[1] = molecular target: T1, HypD (trans-4-hydroxy-L-proline dehydratase; CdHypD); assay: X-ray crystal structure, […] Å; type: binding; settings: unactivated enzyme; active site; 4 mM Hyp in crystallization buffer, 100 mM Hyp in cryoprotectant, pH 7.5, 21 °C
[2] = molecular target: the molecule itself; assay: crystal structure; unactivated wild-type HypD with intact N-terminal hexahistidine tag, crystallised aerobically, hanging drop, 21°C, 14% PEG 3350, 100 mM KCl, 100 mM HEPES pH 7.5; glycerol-bound (2.05 Å) and Hyp-bound (2.52 Å) crystals; eight chains in the asymmetric unit

Molecule	X-ray crystal structure, 2.52 Å [1]	stoichiometry N [2]
O=C(O)[C@@H]1C[C@@H](O)CN1 [Hyp]	In the active site of the Hyp-bound HypD structure, electron density was observed for the substrate	
trans-4-hydroxy-L-proline dehydratase (HypD) from Clostridioides difficile 70-100-2010, wild type, unactivated (enzyme, HypD (trans-4-hydroxy-L-proline dehydratase), glycyl radical enzyme, gene amplified from C. difficile 70-100-2010 genomic DNA; UniProt A0A031WDE4; all residues other than the hexahistidine tag are seen in the structures; Crystallised with the N-terminal hexahistidine tag intact; also called Hyp dehydratase; CdHypD; source: E. coli BL21-CodonPlus(DE3)-RIL, pET28a-CdHypD, purified (Ni-NTA); not …) MARGTFERTKKLREESINAEPHISIERAVLMTEAYKKYEGSVEIPVLRALSFKHYIENRTLSINDGELIVGEKGDSPNGAPTYPEICCHTMEDLEVMHNRDIINFSVSEEARKIHKEEIIPFWKKRQTRDKIINAMTPEWLAAYEAGMFTEFMEQRAPGHTVCGDTIYKKGFLDLKKDIEARLKELDFLNDLDAYNKKADLEAMAIACDAMVILGKRYAEKARQMAEEETDEAKKKDLLLIAETCDVVPAHKPETYHQAIQMYWFVHIGVTTELNIWDAFTPGRLDQHLNPFYERDVENGILDRDRAQELLECLWVKFNNQPAPPKVGITLKESSTYTDFANINTGGINPDGQDGVNEVSYIILDVMDEMKLIQPSSNVQISKKTPQKFLKRACEISRKGWGQPAFYNTEAIVQELMEAGKTIEDARLGGTSGCVETGCFGKEAYVLTGYMNIPKILELTLNNGYDPISKKQIGIETGDPRNFQSYEELFEAFKKQLHYMIDIKIEGNAVIENICAKHMPCPLMSTIVDDCIEKGKDYQRGGARYNTRYIQGVGIGTITDSLTAIKYNVFDKKKFDMDTLLKALDANFEGYEAILNLVSNKTPKYGNDDDYADEIMQEIFNAYYNEVTGRPTVCGGEYRVDMLPTTCHIYFGEIMGASPNGRLCAKPVSEGISPEKGGDTNGPTAVIKSCAKMDHIKTGGTLLNQRFAPSVVQGEKGLDNMANLVRAYFNMDGHHIQFNVFDKNVLLEAQKNPQDYKDLIVRVAGYSDHFNNLSRTLQDEIIGRTEQTF		2

Source: PMC7077986, “Molecular basis for catabolism of the abundant metabolite trans-4-hydroxy-L-proline by a microbial glycyl radical enzyme” (eLife, 2020)
